The assay relates to cultured dorsal root ganglia (DRG) cells. Format: cell-based, mouse.

For the molecule `CCCCCCCCC(=O)NCc1ccc(OCc2ccc3ccc(O)c(Br)c3n2)c(OC)c1` [BHQ-VNA], the “electrophysiological response after light pulse” value is “immediate potential change is observed that is indistinguishable from the VNA trace” and the “electrophysiological response, bath applied, without light” value is “does not have any affect”.

`CCCCCCCCC(=O)NCc1ccc(O)c(OC)c1` [VNA, N-vanillyl nonanamide, reference compound]: for the setting “single DRG neuron, via TRPV1 channels”, the “electrophysiological response (extracellular potential) on topical application” value was “strong and immediate electrophysiological response”.
